This passage reports change in vivo and melting point results from patent US7786108B2, “Compounds and method for treating dyslipidemia” (Eli Lilly and Company, priority 2004, dated 2010).

The first data set relates to transgenic mice that express both human CETP and human apolipoprotein A-1. Put plainly: In vivo assay of plasma lipids: elevation of HDL cholesterol. Conditions: Mus musculus; single oral dose 30 mg/kg; HDL cholesterol in serum at 8 hr after administration; relative to a control; read-out: % HDL cholesterol increase. The source says:
Additional serum lipids can be analyzed by enzymatic methods.
`CCC(CC)OC(=O)N1CCC[C@H](N(Cc2cc(C(F)(F)F)cc(C(F)(F)F)c2)c2nnn(C)n2)c2cc(C)c(C(F)(F)F)cc21` [Example 18, (S)-5-[(3,5-Bis-trifluoromethyl-benzyl)-(2-methyl-2H-tetrazol-5-yl)-amino]-7-methyl-8-trifluoromethyl-2,3,4,5-tetrahydro-benzo[b]azepine-1-carboxylic acid 1-ethyl-propyl ester]: the change in vivo at 30 mg/kg was 105%.

As to `Cn1nnc(N(Cc2cc(C(F)(F)F)cc(C(F)(F)F)c2)[C@H]2CCCN(CC3CCCC3)c3cc4c(cc32)CCCC4)n1` [Example 77, (3,5-Bis-trifluoromethyl-benzyl)-(1-cyclopentylmethyl-2,3,4,5,7,8,9,10-octahydro-1H-naphtho[2,3-b]azepin-5-yl)-(2-methyl-2H-tetrazol-5-yl)-amine], the change in vivo at 30 mg/kg turned out to be 229%.

Take `Cc1cc2c(cc1C(F)(F)F)N(Cc1ccc(C#N)cc1)CCC[C@@H]2N(Cc1cc(C(F)(F)F)cc(C(F)(F)F)c1)c1nnn(C)n1` [Example 192, (S)-4-{5-[(3,5-bis-trifluoromethyl-benzyl)-(2-methyl-2H-tetrazol-5-yl)-amino]-7-methyl-8-trifluoromethyl-2,3,4,5-tetrahydro-benzo[b]azepin-1-ylmethyl}-benzonitrile]: the change in vivo at 30 mg/kg was determined as 102%.

On to `Cc1cc2c(c(C)c1C(F)(F)F)N(C[C@H]1CC[C@H](CC(=O)O)CC1)CCC[C@@H]2N(Cc1cc(C(F)(F)F)cc(C(F)(F)F)c1)c1nnn(C)n1` [Example 153, (S)-(4-{5-[(3,5-Bis-trifluoromethyl-benzyl)-(2-methyl-2H-tetrazol-5-yl)-amino]-7,9-dimethyl-8-trifluoromethyl-2,3,4,5-tetrahydro-benzo[b]azepin-1-ylmethyl}-cyclohexyl)-acetic acid], for which the change in vivo at 30 mg/kg stood at 165%.

For `Cc1cc2c(cc1C(F)(F)F)N(C1CCC(C(=O)O)CC1)CCC[C@@H]2N(Cc1cc(C(F)(F)F)cc(C(F)(F)F)c1)c1nnn(C)n1` (stereo partly drawn) [Example 175, (S)-4-{5-[(3,5-Bis-trifluoromethyl-benzyl)-(2-methyl-2H-tetrazol-5-yl)-amino]-7-methyl-8-trifluoromethyl-2,3,4,5-tetrahydro-benzo[b]azepin-1-yl}-cyclohexanecarboxylic acid], the change in vivo at 30 mg/kg was determined as 100%.

Regarding `Cc1cc2c(cc1C(F)(F)F)N(CC1CCCC1)CCC[C@@H]2N(Cc1cc(C(F)(F)F)cc(C(F)(F)F)c1)c1nnn(C)n1` [Example 3, (S)-(3,5-bistrifluoromethylbenzyl)-(1-cyclopentylmethyl-7-methyl-8-trifluoromethyl-2,3,4,5-tetrahydro-1H-benzo[b]azepin-5-yl)-(2-methyl-2H-tetrazol-5-yl)amine], the change in vivo at 30 mg/kg turned out to be 71%.

With `Cn1nnc(N(Cc2cc(C(F)(F)F)cc(C(F)(F)F)c2)[C@H]2CCCN(CC3CCCC3)c3cc4c(cc32)OC(F)(F)O4)n1` [Example 178, (S)-(3,5-Bis-trifluoromethyl-benzyl)-(5-cyclopentylmethyl-2,2-difluoro-6,7,8,9-tetrahydro-5H-1,3-dioxa-5-aza-cyclohepta[f]inden-9-yl)-(2-methyl-2H-tetrazol-5-yl)-amine], the change in vivo at 30 mg/kg amounted to 128%.

On to `Cc1c2c(cc3c1N(C[C@H]1CC[C@H](CC(=O)O)CC1)CCC[C@@H]3N(Cc1cc(C(F)(F)F)cc(C(F)(F)F)c1)c1nnn(C)n1)COC2` [Example 165, (S)-(4-{9-[(3,5-Bis-trifluoromethyl-benzyl)-(2-methyl-2H-tetrazol-5-yl)-amino]-4-methyl-1,3,6,7,8,9-hexahydro-2-oxa-5-aza-cyclohepta[f]inden-5-ylmethyl}-cyclohexyl)-acetic acid], for which the change in vivo at 30 mg/kg worked out at 177%.

Regarding `CC(C)OC(=O)N1CCCC(N(Cc2cc(C(F)(F)F)cc(C(F)(F)F)c2)c2nnn(C)n2)c2cc3c(cc21)CCC3` (racemic) [Example 50, (+/−)-9-[(3,5-Bis-trifluoromethyl-benzyl)-(2-methyl-2H-tetrazol-5-yl)-amino]-2,3,6,7,8,9-hexahydro-1H-5-aza-cyclohepta[f]indene-5-carboxylic acid isopropyl ester], the change in vivo at 30 mg/kg worked out at 127%.

`Cc1cc2c(cc1C(F)(F)F)N(Cc1ccncc1)CCC[C@@H]2N(Cc1cc(Cl)cc(Cl)c1)c1nnn(C)n1` [Example 187, (S)-(3,5-Dichloro-benzyl)-(7-methyl-1-pyridin-4-ylmethyl-8-trifluoromethyl-2,3,4,5-tetrahydro-1H-benzo[b]azepin-5-yl)-(2-methyl-2H-tetrazol-5-yl)-amine]: the change in vivo at 30 mg/kg turned out to be 124%.

As to `Cc1cc2c(c(C)c1C(F)(F)F)N(C[C@H]1CC[C@H](CC(=O)O)CC1)CCC[C@@H]2N(Cc1cc(Cl)cc(C(F)(F)F)c1)c1nnn(C)n1` [Example 201, (S)-(4-{5-[(3-Chloro-5-trifluoromethyl-benzyl)-(2-methyl-2H-tetrazol-5-yl)-amino]-7,9-dimethyl-8-trifluoromethyl-2,3,4,5-tetrahydro-benzo[b]azepin-1-ylmethyl}-cyclohexyl)-acetic acid], the change in vivo at 30 mg/kg was 147%.

Consider `Cc1cc2c(c(C)c1C(F)(F)F)N(CC1CC1)CCC[C@@H]2N(Cc1cc(Cl)cc(C(F)(F)F)c1)c1nnn(C)n1` [Example 200, (S)-(3-Chloro-5-trifluoromethyl-benzyl)-(1-cyclopropylmethyl-7,9-dimethyl-8-trifluoromethyl-2,3,4,5-tetrahydro-1H-benzo[b]azepin-5-yl)-(2-methyl-2H-tetrazol-5-yl)-amine], for which the change in vivo at 30 mg/kg was found to be 153%.

Consider `Cc1cc2c(cc1C(F)(F)F)N(CCC(C)(C)CC(=O)O)CCC[C@@H]2N(Cc1cc(C(F)(F)F)cc(C(F)(F)F)c1)c1nnn(C)n1` [Example 32, (S)-5-{5-[(3,5-Bis-trifluoromethyl-benzyl)-(2-methyl-2H-tetrazol-5-yl)-amino]-7-methyl-8-trifluoromethyl-2,3,4,5-tetrahydro-benzo[b]azepin-1-yl}-3,3-dimethyl-pentanoic acid], for which the change in vivo at 30 mg/kg was 128%.

On to `Cc1cc2c(cc1C(F)(F)F)N(C1CCOCC1)CCC[C@@H]2N(Cc1cc(C(F)(F)F)cc(C(F)(F)F)c1)c1nnn(C)n1` [Example 139, (S)-(3,5-Bis-trifluoromethyl-benzyl)-[7-methyl-1-(tetrahydro-pyran-4-yl)-8-trifluoromethyl-2,3,4,5-tetrahydro-1H-benzo[b]azepin-5-yl]-(2-methyl-2H-tetrazol-5-yl)-amine], for which the change in vivo at 30 mg/kg amounted to 130%.

Tested on in another data set: not given
Experiment: not given
Details: not given
For the compound `COC(=O)c1ccc(CN2CCC[C@H](N(Cc3cc(C(F)(F)F)cc(C(F)(F)F)c3)c3nnn(C)n3)c3cc(C)c(C(F)(F)F)cc32)cc1` [Example 88, (S)-4-{5-[(3,5-Bis-trifluoromethyl-benzyl)-(2-methyl-2H-tetrazol-5-yl)-amino]-7-methyl-8-trifluoromethyl-2,3,4,5-tetrahydro-benzo[b]azepin-1-ylmethyl}-benzoic acid methyl ester], the melting point (usually the temperature of the solid-liquid transition) is 71 to 74 °C (dec.).

With `Cc1cc2c(cc1C(F)(F)F)N(c1ccc(C(=O)O)cc1)CCC[C@@H]2N(Cc1cc(C(F)(F)F)cc(C(F)(F)F)c1)c1nnn(C)n1` [Example 92, (S)-4-{5-[(3,5-Bis-trifluoromethyl-benzyl)-(2-methyl-2H-tetrazol-5-yl)-amino]-7-methyl-8-trifluoromethyl-2,3,4,5-tetrahydro-benzo[b]azepin-1-yl}-benzoic acid], the melting point was 101 to 105 °C.
